Experimental data: ChEMBL document CHEMBL3885881, “DrugMatrix”

Species: Rattus norvegicus
Experiment: DrugMatrix - Regimen: Daily Repeat
Type: toxicity, organism-based, Sprague-Dawley
Set-up: regimen Daily Repeat, gender Male, age 6-8 weeks
Settings: in vivo, po, route oral GAVAGE, vehicle 100 % WATER; for ABSOLUTE BASOPHIL / ABSOLUTE EOSINOPHIL / ABSOLUTE LYMPHOCYTE / ABSOLUTE MONOCYTE / ABSOLUTE SEGMENTED NEUTROPHIL / BASOPHIL / EOSINOPHIL / ERYTHROCYTE COUNT / HEMATOCRIT / HEMOGLOBIN / LEUKOCYTE COUNT / LYMPHOCYTE / MEAN CORPUSCULAR HEMOGLOBIN / MEAN CORPUSCULAR HEMOGLOBIN CONCENTRATION / MEAN CORPUSCULAR VOLUME / MONOCYTE / NEUTROPHIL / NUCLEATED RED BLOOD CELLS / PLATELET COUNT: tissue Blood; for ALANINE AMINOTRANSFERASE / ALBUMIN / ALKALINE PHOSPHATASE / ASPARTATE AMINOTRANSFERASE / BLOOD UREA NITROGEN / CARBON DIOXIDE / CHLORIDE / CHOLESTEROL / CREATINE PHOSPHOKINASE / CREATININE / GLUCOSE / LACTATE DEHYDROGENASE / LIPASE / PHOSPHORUS / POTASSIUM / SODIUM / TOTAL BILIRUBIN / TOTAL PROTEIN / URIC ACID: tissue Plasma
[1] = 0 mg/kg, 72 h, dose level Control, time 3 day
[2] = 0 mg/kg, 120 h, dose level Control, time 5 day
[3] = 6 mg/kg, 72 h, dose level Low, time 3 day

Structure (SMILES): CN1CCN(C(=O)OC2c3nccnc3C(=O)N2c2ccc(Cl)cn2)CC1 (centres undefined) [ZOPICLONE]
- ABSOLUTE BASOPHIL [1]: 0 CELLS/uL
- ABSOLUTE EOSINOPHIL [1]: 86.33 CELLS/uL
- ABSOLUTE LYMPHOCYTE [1]: 12090.17 CELLS/uL
- ABSOLUTE MONOCYTE [1]: 166.67 CELLS/uL
- ABSOLUTE SEGMENTED NEUTROPHIL [1]: 1090.17 CELLS/uL
- BASOPHIL [1]: 0%
- EOSINOPHIL [1]: 0.67%
- ERYTHROCYTE COUNT [1]: 5.57 x10E6/uL
- HEMATOCRIT [1]: 35.33%
- HEMOGLOBIN [1]: 13.83 G/DL
- LEUKOCYTE COUNT [1]: 13.43 x10E3/uL
- LYMPHOCYTE [1]: 89.83%
- MEAN CORPUSCULAR HEMOGLOBIN [1]: 24.88 pg
- MEAN CORPUSCULAR HEMOGLOBIN CONCENTRATION [1]: 39.15 G/DL
- MEAN CORPUSCULAR VOLUME [1]: 63.52 fL
- MONOCYTE [1]: 1.17%
- NEUTROPHIL [1]: 8.33%
- NUCLEATED RED BLOOD CELLS [1]: 0 /100WBC
- PLATELET COUNT [1]: 1181.33 x10E3/uL
- ALANINE AMINOTRANSFERASE [1]: 48.33 u/L
- ALBUMIN [1]: 4.1 G/DL
- ALKALINE PHOSPHATASE [1]: 395 u/L
- ASPARTATE AMINOTRANSFERASE [1]: 81.83 u/L
- BLOOD UREA NITROGEN [1]: 15.83 mg/dL
- CARBON DIOXIDE [1]: 24.17 mmol/L
- CHLORIDE [1]: 103.83 MEQ/L
- CHOLESTEROL [1]: 63.67 mg/dL
- CREATINE PHOSPHOKINASE [1]: 372.83 u/L
- CREATININE [1]: 0.18 mg/dL
- GLUCOSE [1]: 173.83 mg/dL
- LACTATE DEHYDROGENASE [1]: 188.33 u/L
- LIPASE [1]: 9.5 u/L
- PHOSPHORUS [1]: 11.95 mg/dL
- POTASSIUM [1]: 5.99 MEQ/L
- SODIUM [1]: 144.43 MEQ/L
- TOTAL BILIRUBIN [1]: 0.15 mg/dL
- TOTAL PROTEIN [1]: 5.95 G/DL
- URIC ACID [1]: 1.82 mg/dL
- ABSOLUTE BASOPHIL [2]: 0 CELLS/uL
- ABSOLUTE EOSINOPHIL [2]: 26.67 CELLS/uL
- ABSOLUTE LYMPHOCYTE [2]: 7583.83 CELLS/uL
- ABSOLUTE MONOCYTE [2]: 131.33 CELLS/uL
- ABSOLUTE SEGMENTED NEUTROPHIL [2]: 674.83 CELLS/uL
- BASOPHIL [2]: 0%
- EOSINOPHIL [2]: 0.33%
- ERYTHROCYTE COUNT [2]: 5.78 x10E6/uL
- HEMATOCRIT [2]: 36.48%
- HEMOGLOBIN [2]: 14.03 G/DL
- LEUKOCYTE COUNT [2]: 8.42 x10E3/uL
- LYMPHOCYTE [2]: 89.83%
- MEAN CORPUSCULAR HEMOGLOBIN [2]: 24.3 pg
- MEAN CORPUSCULAR HEMOGLOBIN CONCENTRATION [2]: 38.52 G/DL
- MEAN CORPUSCULAR VOLUME [2]: 63.15 fL
- MONOCYTE [2]: 1.67%
- NEUTROPHIL [2]: 8.17%
- NUCLEATED RED BLOOD CELLS [2]: 0 /100WBC
- PLATELET COUNT [2]: 1186.67 x10E3/uL
- ALANINE AMINOTRANSFERASE [2]: 50.17 u/L
- ALBUMIN [2]: 4.07 G/DL
- ALKALINE PHOSPHATASE [2]: 367.5 u/L
- ASPARTATE AMINOTRANSFERASE [2]: 81.67 u/L
- BLOOD UREA NITROGEN [2]: 16.17 mg/dL
- CARBON DIOXIDE [2]: 32.33 mmol/L
- CHLORIDE [2]: 101.5 MEQ/L
- CHOLESTEROL [2]: 65.33 mg/dL
- CREATINE PHOSPHOKINASE [2]: 255.33 u/L
- CREATININE [2]: 0.17 mg/dL
- GLUCOSE [2]: 139.33 mg/dL
- LACTATE DEHYDROGENASE [2]: 95 u/L
- LIPASE [2]: 10.5 u/L
- PHOSPHORUS [2]: 10.38 mg/dL
- POTASSIUM [2]: 6.11 MEQ/L
- SODIUM [2]: 145.55 MEQ/L
- TOTAL BILIRUBIN [2]: 0.17 mg/dL
- TOTAL PROTEIN [2]: 5.98 G/DL
- URIC ACID [2]: 0.93 mg/dL
- ABSOLUTE BASOPHIL [3]: 0 CELLS/uL
- ABSOLUTE EOSINOPHIL [3]: 0 CELLS/uL
- ABSOLUTE LYMPHOCYTE [3]: 14318.33 CELLS/uL
- ABSOLUTE MONOCYTE [3]: 218 CELLS/uL
- ABSOLUTE SEGMENTED NEUTROPHIL [3]: 1497 CELLS/uL
- BASOPHIL [3]: 0%
- EOSINOPHIL [3]: 0%
- ERYTHROCYTE COUNT [3]: 5.61 x10E6/uL
- HEMATOCRIT [3]: 35.47%
- HEMOGLOBIN [3]: 13.67 G/DL
- LEUKOCYTE COUNT [3]: 16.03 x10E3/uL
- LYMPHOCYTE [3]: 89.33%
- MEAN CORPUSCULAR HEMOGLOBIN [3]: 24.37 pg
- MEAN CORPUSCULAR HEMOGLOBIN CONCENTRATION [3]: 38.53 G/DL
- MEAN CORPUSCULAR VOLUME [3]: 63.23 fL
- MONOCYTE [3]: 1.33%
- NEUTROPHIL [3]: 9.33%
- NUCLEATED RED BLOOD CELLS [3]: 0 /100WBC
- PLATELET COUNT [3]: 1106.33 x10E3/uL
- ALANINE AMINOTRANSFERASE [3]: 43.67 u/L
- ALBUMIN [3]: 3.9 G/DL
- ALKALINE PHOSPHATASE [3]: 402 u/L
- ASPARTATE AMINOTRANSFERASE [3]: 70.33 u/L
- BLOOD UREA NITROGEN [3]: 14.33 mg/dL
- CARBON DIOXIDE [3]: 25.33 mmol/L
- CHLORIDE [3]: 102 MEQ/L
- CHOLESTEROL [3]: 72.33 mg/dL
- CREATINE PHOSPHOKINASE [3]: 454.67 u/L
- CREATININE [3]: 0.15 mg/dL
- GLUCOSE [3]: 170.33 mg/dL
- LACTATE DEHYDROGENASE [3]: 139 u/L
- LIPASE [3]: 9 u/L
- PHOSPHORUS [3]: 12.8 mg/dL
- POTASSIUM [3]: 6.03 MEQ/L
- SODIUM [3]: 142.73 MEQ/L
- TOTAL BILIRUBIN [3]: 0.2 mg/dL
- TOTAL PROTEIN [3]: 5.63 G/DL
- URIC ACID [3]: 1.97 mg/dL
